Data on 12 molecules can be found in patent publication US7902361B2, “Pyrimidin-4-yl-3, 4-thione compounds and their use in therapy” (Cyclacel Limited, priority 2003, dated 2011).

SMILES strings stand for the structures.

One series has as its target T1, aurora A (Homo sapiens, UniProt O14965).
T1 sequence (O14965 1-403): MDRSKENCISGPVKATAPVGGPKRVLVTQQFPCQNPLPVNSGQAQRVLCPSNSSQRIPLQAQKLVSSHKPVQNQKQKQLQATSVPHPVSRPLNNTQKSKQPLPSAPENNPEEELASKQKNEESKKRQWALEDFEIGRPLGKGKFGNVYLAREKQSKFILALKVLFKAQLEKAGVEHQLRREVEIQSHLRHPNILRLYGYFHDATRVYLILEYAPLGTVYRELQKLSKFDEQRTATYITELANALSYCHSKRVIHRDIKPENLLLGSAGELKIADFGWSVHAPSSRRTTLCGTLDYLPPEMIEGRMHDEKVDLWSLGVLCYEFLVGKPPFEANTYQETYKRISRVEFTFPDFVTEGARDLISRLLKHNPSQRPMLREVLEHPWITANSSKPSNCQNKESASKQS
Kind of series: Kinase assay aurora A. To be noted: Ki calculated (Cheng-Prusoff) from experimentally determined IC50 and Km,ATP; read-out: Kinase Inhibition Ki Aurora A. The format is biochemical. Here is the method: The compounds from the examples above were investigated for their ability to inhibit the enzymatic activity of various protein kinases. This was achieved by measurement of incorporation of radioactive phosphate from ATP into appropriate polypeptide substrates. Recombinant protein kinases and kinase complexes were produced or obtained commercially. Assays were performed using 96-well plates and appropriate assay buffers (typically 25 mM β-glycerophosphate, 20 mM MOPS, 5 mM EGTA, 1 mM DTT, 1 mM […], pH 7.4), into which were added 2-4 μg of active enzyme with appropriate substrates. […] Reactions were stopped on ice, followed by filtration through p81 filterplates or GF/C filterplates (Whatman Polyfiltronics, Kent, UK). After washing 3 times with 75 mM aq orthophosphoric acid, plates were dried, scintillant added and incorporated radioactivity measured in a scintillation counter (TopCount, Packard Instruments, Pangbourne, Berks, UK). Compounds for kinase assay were made up as 10 mM stocks in DMSO and diluted into 10% DMSO in assay buffer.

The target of another series is T2, GSK3β (Homo sapiens, UniProt P49841).
T2 construct: purchased New England Biolabs
Kind of series: GSK3β in vitro kinase assay. To be noted: recombinant human GSK3β, 100 μM ATP. The class given is biochemical. The method, boiled down: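 Radiometric filter-binding assay with GSK3β (1.5 units), 200 μM CREB phosphopeptide, 100 μM ATP plus [γ-32P]ATP, in 20 mM Tris HCl pH7.5, 5 mM DTT, 15 mM MgCl2, 2% DMSO; 30 min at 30° C, stopped with phosphoric acid. 32P incorporation counted by scintillation; IC50 from 10-point titration.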

The next series deals with CDK4/cyclin D1 (Homo sapiens, UniProt P11802). Nature of the series: Kinase assay CDK4/cyclin D1. To be noted: Ki calculated (Cheng-Prusoff) from experimentally determined IC50 and Km,ATP; read-out: Kinase Inhibition Ki CDK4 - cyclin D1. The format is biochemical. The method, boiled down:
(§1)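 Radiometric filter assays used recombinant kinases or complexes (2-4 μg) with appropriate polypeptide substrates in pH 7.4 β-glycerophosphate/MOPS buffer. Reactions were started with 15 mM MgCl2 and 100 μM ATP containing [γ-32P]-ATP and run at 30° C. Phosphate incorporated into substrate was counted by scintillation after washing.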

The target of the next series is CDK2/cyclin E (Homo sapiens, UniProt P24941). Kind of series: Kinase assay CDK2/cyclin E. The class given is biochemical. Conditions: Ki calculated (Cheng-Prusoff) from experimentally determined IC50 and Km,ATP; read-out: Kinase Inhibition Ki CDK2 - cyclin E. The method, boiled down: (§2)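 Radiometric assays measured transfer of radioactive phosphate from ATP onto polypeptide substrates, using 2-4 μg recombinant active enzyme in buffer typically containing 25 mM β-glycerophosphate, 20 mM MOPS, 5 mM EGTA, 1 mM DTT and 1 mM Na3VO3 at pH 7.4. Reactions were stopped on ice, filtered on P81 or GF/C plates and washed with orthophosphoric acid. Incorporated radioactivity was scintillation-counted.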

The target of another series is CDK9/cyclin T1 (Homo sapiens, UniProt P50750). Nature of the series: Kinase assay CDK9/cyclin T1. The format is biochemical. Conditions: Ki calculated (Cheng-Prusoff) from experimentally determined IC50 and Km,ATP; read-out: Kinase Inhibition Ki CDK9 - cyclin T1. The gist of the method:
as §1

The target in a further series is CDK2/cyclin A (Homo sapiens, UniProt P24941). Kind of series: Kinase assay CDK2/cyclin A. The format is biochemical. Conditions: Ki calculated (Cheng-Prusoff) from experimentally determined IC50 and Km,ATP; read-out: Kinase Inhibition Ki CDK2 - cyclin A. The gist of the method:
as §2

Another series deals with CDK7/cyclin H (Homo sapiens, UniProt P50613). Kind of series: Kinase assay CDK7/cyclin H. The format is biochemical. To be noted: Ki calculated (Cheng-Prusoff) from experimentally determined IC50 and Km,ATP; read-out: Kinase Inhibition Ki CDK7 - cyclin H. The gist of the method: as §1
The target in the next series is CDK1/cyclin B (Homo sapiens, UniProt P06493). Nature of the series: Kinase assay CDK1/cyclin B (radioactive phosphate incorporation). The format is biochemical. Conditions: Ki calculated (Cheng-Prusoff) from experimentally determined IC50 and Km,ATP; read-out: Kinase Inhibition Ki CDK1 - cyclin B. The gist of the method: as §2
The test system of a further series is HIV-1. To be noted: HIV-1 in human PBMCs, seven days following infection.

Sequence of CDK1/cyclin B (P06493 whole entry, species assumed): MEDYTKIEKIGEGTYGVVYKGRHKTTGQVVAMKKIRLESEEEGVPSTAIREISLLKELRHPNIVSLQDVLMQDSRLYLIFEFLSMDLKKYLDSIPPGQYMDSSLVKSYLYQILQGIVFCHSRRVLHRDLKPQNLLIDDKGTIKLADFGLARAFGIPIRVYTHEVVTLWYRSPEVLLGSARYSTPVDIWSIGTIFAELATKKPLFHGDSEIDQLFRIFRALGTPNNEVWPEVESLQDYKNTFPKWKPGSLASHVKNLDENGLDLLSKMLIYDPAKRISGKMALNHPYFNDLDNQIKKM
Sequence of CDK1/cyclin B (P14635 whole entry partner, species assumed): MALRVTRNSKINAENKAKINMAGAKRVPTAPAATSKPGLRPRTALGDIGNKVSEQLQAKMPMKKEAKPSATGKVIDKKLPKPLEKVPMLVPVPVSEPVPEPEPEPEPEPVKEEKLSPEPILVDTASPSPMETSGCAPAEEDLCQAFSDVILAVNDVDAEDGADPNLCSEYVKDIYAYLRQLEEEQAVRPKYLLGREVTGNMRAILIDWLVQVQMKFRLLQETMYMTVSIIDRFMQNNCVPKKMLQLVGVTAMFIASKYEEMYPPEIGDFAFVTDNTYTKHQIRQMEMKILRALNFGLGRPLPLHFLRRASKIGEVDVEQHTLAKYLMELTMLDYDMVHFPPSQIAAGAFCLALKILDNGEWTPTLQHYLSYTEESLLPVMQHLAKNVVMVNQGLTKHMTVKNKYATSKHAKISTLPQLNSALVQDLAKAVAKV
T2 sequence (P49841 whole entry): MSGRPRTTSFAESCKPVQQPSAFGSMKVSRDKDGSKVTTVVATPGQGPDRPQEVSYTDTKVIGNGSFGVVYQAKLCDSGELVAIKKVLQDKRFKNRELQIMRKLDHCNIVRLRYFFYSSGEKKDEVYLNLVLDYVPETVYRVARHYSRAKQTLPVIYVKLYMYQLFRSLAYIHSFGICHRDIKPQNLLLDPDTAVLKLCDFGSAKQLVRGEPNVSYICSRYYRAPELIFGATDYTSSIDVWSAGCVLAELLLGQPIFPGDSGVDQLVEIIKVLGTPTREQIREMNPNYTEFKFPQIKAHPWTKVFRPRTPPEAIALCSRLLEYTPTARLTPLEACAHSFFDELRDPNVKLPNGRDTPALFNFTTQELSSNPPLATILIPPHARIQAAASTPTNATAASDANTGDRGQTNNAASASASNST
Sequence of CDK7/cyclin H (P50613 whole entry, species assumed): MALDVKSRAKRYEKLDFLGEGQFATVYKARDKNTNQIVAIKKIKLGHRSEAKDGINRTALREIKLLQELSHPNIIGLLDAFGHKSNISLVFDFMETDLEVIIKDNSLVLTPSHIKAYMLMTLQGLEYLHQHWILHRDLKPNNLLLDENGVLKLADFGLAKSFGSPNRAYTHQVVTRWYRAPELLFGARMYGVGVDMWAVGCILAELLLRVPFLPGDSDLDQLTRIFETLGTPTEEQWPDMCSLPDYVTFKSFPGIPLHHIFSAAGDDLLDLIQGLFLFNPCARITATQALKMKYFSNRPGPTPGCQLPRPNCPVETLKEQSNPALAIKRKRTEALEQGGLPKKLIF
Sequence of CDK7/cyclin H (P51946 whole entry partner, species assumed): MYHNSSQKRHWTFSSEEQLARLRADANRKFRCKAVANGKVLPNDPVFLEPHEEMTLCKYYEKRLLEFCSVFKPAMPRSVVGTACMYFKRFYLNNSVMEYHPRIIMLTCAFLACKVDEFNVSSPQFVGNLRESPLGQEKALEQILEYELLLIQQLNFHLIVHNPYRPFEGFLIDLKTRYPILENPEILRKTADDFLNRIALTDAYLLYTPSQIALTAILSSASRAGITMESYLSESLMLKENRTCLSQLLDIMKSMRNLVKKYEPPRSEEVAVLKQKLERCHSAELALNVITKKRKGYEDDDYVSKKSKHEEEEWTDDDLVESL
Sequence of CDK4/cyclin D1 (P11802 whole entry, species assumed): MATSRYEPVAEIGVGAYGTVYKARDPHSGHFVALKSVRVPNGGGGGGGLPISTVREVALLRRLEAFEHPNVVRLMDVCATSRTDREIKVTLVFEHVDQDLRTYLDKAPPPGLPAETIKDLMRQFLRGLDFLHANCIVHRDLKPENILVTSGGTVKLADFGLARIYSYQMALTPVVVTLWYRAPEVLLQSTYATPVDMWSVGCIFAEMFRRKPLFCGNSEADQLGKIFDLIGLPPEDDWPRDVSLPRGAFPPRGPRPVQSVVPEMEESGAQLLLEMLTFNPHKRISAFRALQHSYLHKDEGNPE
Sequence of CDK4/cyclin D1 (P24385 whole entry partner, species assumed): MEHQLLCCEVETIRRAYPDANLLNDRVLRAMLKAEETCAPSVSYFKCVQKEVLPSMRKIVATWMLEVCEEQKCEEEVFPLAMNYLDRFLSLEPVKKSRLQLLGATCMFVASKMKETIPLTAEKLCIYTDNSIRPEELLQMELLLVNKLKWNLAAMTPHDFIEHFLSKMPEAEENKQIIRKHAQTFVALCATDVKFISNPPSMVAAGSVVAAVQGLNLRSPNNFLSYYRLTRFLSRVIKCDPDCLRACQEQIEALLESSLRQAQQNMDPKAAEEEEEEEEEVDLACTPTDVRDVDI
Sequence of CDK9/cyclin T1 (P50750 whole entry, species assumed): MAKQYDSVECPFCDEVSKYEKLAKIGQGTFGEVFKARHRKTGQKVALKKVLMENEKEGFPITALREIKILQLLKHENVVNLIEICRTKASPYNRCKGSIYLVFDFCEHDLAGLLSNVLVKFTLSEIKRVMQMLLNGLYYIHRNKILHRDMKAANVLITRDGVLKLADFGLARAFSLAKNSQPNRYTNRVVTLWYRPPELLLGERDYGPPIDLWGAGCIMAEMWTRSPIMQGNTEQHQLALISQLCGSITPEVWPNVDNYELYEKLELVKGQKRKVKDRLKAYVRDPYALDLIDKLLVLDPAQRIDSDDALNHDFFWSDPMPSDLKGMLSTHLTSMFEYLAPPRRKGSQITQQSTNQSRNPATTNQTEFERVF
Sequence of CDK9/cyclin T1 (O60563 whole entry partner, species assumed): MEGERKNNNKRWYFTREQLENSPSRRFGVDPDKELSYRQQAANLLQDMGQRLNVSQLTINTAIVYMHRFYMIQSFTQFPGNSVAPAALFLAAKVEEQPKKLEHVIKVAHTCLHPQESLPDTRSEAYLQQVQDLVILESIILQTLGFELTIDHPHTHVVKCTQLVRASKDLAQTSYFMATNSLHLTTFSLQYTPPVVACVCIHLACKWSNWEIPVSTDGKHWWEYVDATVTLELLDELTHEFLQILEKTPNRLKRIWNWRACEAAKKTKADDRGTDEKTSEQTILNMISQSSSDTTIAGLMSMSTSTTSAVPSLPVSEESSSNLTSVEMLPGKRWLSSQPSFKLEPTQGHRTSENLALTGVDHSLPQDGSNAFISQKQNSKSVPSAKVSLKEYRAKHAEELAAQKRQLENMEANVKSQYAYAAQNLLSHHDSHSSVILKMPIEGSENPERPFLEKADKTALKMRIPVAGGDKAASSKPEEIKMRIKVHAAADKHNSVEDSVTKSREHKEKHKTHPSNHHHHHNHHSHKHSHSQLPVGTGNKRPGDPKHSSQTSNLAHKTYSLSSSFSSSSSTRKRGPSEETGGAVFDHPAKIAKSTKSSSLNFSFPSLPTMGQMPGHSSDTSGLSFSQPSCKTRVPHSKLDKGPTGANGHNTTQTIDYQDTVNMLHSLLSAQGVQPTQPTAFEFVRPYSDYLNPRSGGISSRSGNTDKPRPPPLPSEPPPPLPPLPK
Procedure for HIV-1: Representative compounds of the present invention were tested for antiviral activity against HIV-1 in human peripheral blood mononuclear cells (PBMCs) using the clinical paediatric HIV strains RoJo or WeJo. PBMCs were cultured under conditions which promote cell survival and HIV replication.
Fresh PBMCs, seronegative for HIV and HBV, were isolated from screened donors (Interstate Blood Bank, Inc. Memphis, Tenn.). Cells were pelleted/washed 2-3 times by low speed centrifugation and re-suspension in PBS to remove contaminating platelets. […] Banded PBMCs were gently aspirated from the resulting interface and subsequently washed with PBS by low speed centrifugation. […] The cells were allowed to incubate at 37° C. […] IL-2 is included in the culture medium to maintain the cell division initiated by the PHA mitogenic stimulation. PBMCs were maintained in this with bi-weekly medium changes until used in the assay protocol. Cells were kept in culture for a maximum of two weeks before being deemed too old for use in assays and discarded. Monocytes were depleted from the culture as the result of adherence to the tissue culture flask.
For the standard PBMC assay, PHA-P stimulated cells from at least two normal donors were pooled, diluted and plated in the interior wells of a 96-well round bottom microplate. Pooling of mononuclear cells from more than one donor was used to minimise the variability observed between individual donors, which results from quantitative and qualitative differences in HIV infection and overall response to the PHA and IL-2 of primary lymphocyte populations. Each plate contained virus/cell control wells (cells plus virus), experimental wells (drug plus cells plus virus) and compound control wells (drug plus media without cells, necessary for MTS monitoring of cytotoxicity). Since HIV-1 is not cytopathic to PBMCs, this allows the use of the same assay plate for both antiviral activity and cytotoxicity measurements. Test drug dilutions were prepared in microtiter tubes and each concentration was placed in appropriate wells using the standard format. A predetermined dilution of virus stock was placed in each test well (final MOI≅0.1). The PBMC cultures were maintained for seven days following infection at 37° C., 5% CO2 After this period, cell-free supernatant samples were collected for analysis of reverse transcriptase activity and/or HIV p24 content. Following removal of supernatant samples, compound cytotoxicity was measured by addition of MTS to the plates for determination of cell viability. Wells were also examined microscopically and any abnormalities were noted.
Tritiated thymidine triphosphate (^3H-TTP, 80 Ci/mmol, NEN) was received in 1:1 dH2O:Ethanol at 1 mCi/mL. Poly rA:oligo dT template:primer (Pharmacia) was prepared as a stock solution, followed by aliquoting and storage at −20° C. The RT reaction buffer was prepared fresh on a daily basis. The final reaction mixture was prepared by combining ^3H-TTP, dH2O, poly rA:oligo dT stock and reaction buffer. This reaction mixture was placed in a round bottom microtiter plate and supernatant containing virus was added and mixed. The plate was incubated at 37° C. for 60 minutes. Following incubation, the reaction volume was spotted onto DE81 filter-mats (Wallac), in a sodium phosphate buffer or 2×SSC (Life Technologies). Next they were washed in distilled water, in 70% ethanol, and then dried. Incorporated radioactivity (counts per minute, CPM) was quantified using standard liquid scintillation techniques.

What is called Ki is the equilibrium dissociation constant of an inhibitor or competing ligand from its target. Usually IC50 stands for the concentration that inhibits the measured activity by half. In the case of `CC(=O)NCc1ccc(Nc2nccc(-c3sc(=O)n(C)c3C)n2)cc1` [Compound 59, N-{4-[4-(3,4-Dimethyl-2-oxo-2,3-dihydro-thiazol-5-yl)-pyrimidin-2-ylamino]-benzyl}-acetamide], the Ki on aurora A was 110 nM; at CDK4/cyclin D1, 97 nM; at CDK2/cyclin E it was 1.6 nM; at CDK9/cyclin T1, 7 nM; at CDK2/cyclin A it was 160 nM; on CDK7/cyclin H, 210 nM. Moreover, the inhibition constant Ki on CDK1/cyclin B is 85 nM. Further, the IC50 on GSK3β was 18.3 nM. In addition, the “anti-HIV activity based on TI (therapeutic index: TC50/IC50)” value in the series on HIV-1 was “Active”.

As to `CCn1c(C)c(-c2ccnc(Nc3ccc(OC)nc3)n2)sc1=O` [Compound 33, 3-Ethyl-5-[2-(6-methoxy-pyridin-3-ylamino)-pyrimidin-4-yl]-4-methyl-3H-thiazol-2-one], the Ki on CDK4/cyclin D1 is 35 nM; at CDK2/cyclin E, 50 nM; on CDK9/cyclin T1, 2.4 nM; on CDK2/cyclin A it was 760 nM; on CDK7/cyclin H, 23 nM; at CDK1/cyclin B it was 30 nM. Moreover, in the series on HIV-1, the “anti-HIV activity based on TI (therapeutic index: TC50/IC50)” value is “Active”.

As to `Cc1c(-c2ccnc(Nc3ccc(F)cc3)n2)sc(=O)n1C` [Compound 2, 5-[2-(4-Fluoro-phenylamino)-pyrimidin-4-yl]-3,4-dimethyl-3H-thiazol-2-one], the inhibition constant (Ki) on aurora A is 350 nM; on CDK9/cyclin T1, 0.8 nM. In the series on HIV-1, the “anti-HIV activity based on TI (therapeutic index: TC50/IC50)” value is “Active”.

For the molecule `Cc1c(-c2ccnc(Nc3ccc(N4CCNCC4)cc3)n2)sc(=O)n1C` [Compound 38, 3,4-Dimethyl-5-[2-(4-piperazin-1-yl-phenylamino)-pyrimidin-4-yl]-3H-thiazol-2-one], the inhibition constant (Ki) on aurora A is 88 nM; at CDK4/cyclin D1 it was 50 nM; on CDK2/cyclin E it was 180 nM; at CDK9/cyclin T1, 10 nM; on CDK2/cyclin A it was 300 nM; at CDK7/cyclin H, 38 nM. Besides, the Ki on CDK1/cyclin B was 470 nM. The “anti-HIV activity based on TI (therapeutic index: TC50/IC50)” value in the series with HIV-1 is “Active”.

Regarding `Cc1ccc(Nc2nccc(-c3sc(=O)n(C)c3C)n2)cc1C(F)(F)F` [Compound 21, 3,4-Dimethyl-5-[2-(4-methyl-3-trifluoromethyl-phenylamino)-pyrimidin-4-yl]-3H-thiazol-2-one], the Ki at CDK2/cyclin E is 190 nM; at CDK9/cyclin T1 it was 170 nM; on CDK2/cyclin A it was 550 nM; on CDK7/cyclin H, 220 nM; on CDK1/cyclin B it was 2300 nM. Besides, the “anti-HIV activity based on TI (therapeutic index: TC50/IC50)” value with HIV-1 was “Active”.

For the molecule `CCn1c(C)c(-c2ccnc(Nc3cccc([N+](=O)[O-])c3)n2)sc1=O` [Compound 23, 3-Ethyl-4-methyl-5-[2-(3-nitro-phenylamino)-pyrimidin-4-yl]-3H-thiazol-2-one], the Ki on CDK4/cyclin D1 was 870 nM; on CDK2/cyclin E it was 16 nM; on CDK9/cyclin T1 it was 0.3 nM; at CDK2/cyclin A, 62 nM; on CDK7/cyclin H, 1.4 nM; on CDK1/cyclin B, 290 nM. The “anti-HIV activity based on TI (therapeutic index: TC50/IC50)” value with HIV-1 is listed as “Active”.

Consider `Cc1cc(Nc2nccc(-c3sc(=O)n(C)c3C)n2)ccc1Cl` [Compound 15, 5-[2-(4-Chloro-3-methyl-phenylamino)-pyrimidin-4-yl]-3,4-dimethyl-3H-thiazol-2-one], for which the Ki on CDK4/cyclin D1 is 9600 nM; at CDK2/cyclin E it was 580 nM; on CDK9/cyclin T1 it was 45 nM; at CDK2/cyclin A, 460 nM; on CDK1/cyclin B it was 600 nM. Further, the “anti-HIV activity based on TI (therapeutic index: TC50/IC50)” value with HIV-1 is reported as “Active”.

On to `Cc1c(-c2ccnc(Nc3cccc(C#N)c3)n2)sc(=O)n1C` [Compound 16, 3-[4-(3,4-Dimethyl-2-oxo-2,3-dihydro-thiazol-5-yl)-pyrimidin-2-ylamino]-benzonitrile], for which the inhibition constant Ki is 100 nM on CDK4/cyclin D1; 0.5 nM at CDK2/cyclin E; 1.9 nM at CDK9/cyclin T1; 42 nM at CDK2/cyclin A; 6.8 nM at CDK7/cyclin H; 400 nM on CDK1/cyclin B. Besides, in the series on HIV-1, the “anti-HIV activity based on TI (therapeutic index: TC50/IC50)” value is reported as “Active”.

For `Cc1ccc(Nc2nccc(-c3sc(=O)n(C)c3C)n2)cc1[N+](=O)[O-]` [Compound 11, 3,4-Dimethyl-5-[2-(4-methyl-3-nitro-phenylamino)-pyrimidin-4-yl]-3H-thiazol-2-one], the inhibitory constant (Ki) at CDK4/cyclin D1 is 380 nM; on CDK2/cyclin E, 61 nM; at CDK9/cyclin T1, 0.4 nM; at CDK2/cyclin A, 220 nM; on CDK7/cyclin H, 36 nM; on CDK1/cyclin B, 720 nM. Also, in the series with HIV-1, the “anti-HIV activity based on TI (therapeutic index: TC50/IC50)” value is recorded as “Active”.

For `Cc1c(-c2ccnc(Nc3cccc(S(N)(=O)=O)c3)n2)sc(=O)n1C` [Compound 60, 3-[4-(3,4-Dimethyl-2-oxo-2,3-dihydro-thiazol-5-yl)-pyrimidin-2-ylamino]-benzenesulfonamide], the Ki was 30 nM on aurora A; 22 nM on CDK4/cyclin D1; 3.4 nM on CDK2/cyclin E; 0.3 nM at CDK9/cyclin T1; 21 nM on CDK2/cyclin A; 39 nM at CDK7/cyclin H. On CDK1/cyclin B, the Ki is 21 nM. At GSK3β, the 50% inhibitory concentration (IC50) turned out to be 1.8 nM. For the same molecule, in the series on HIV-1, the “anti-HIV activity based on TI (therapeutic index: TC50/IC50)” value is on record as “Active”.

Turning to `CCn1c(C)c(-c2ccnc(Nc3ccc(F)cc3)n2)sc1=O` [Compound 45, 3-Ethyl-5-[2-(4-fluoro-phenylamino)-pyrimidin-4-yl]-4-methyl-3H-thiazol-2-one], the Ki at aurora A is 43 nM; on CDK4/cyclin D1, 5000 nM; on CDK2/cyclin E, 24 nM; on CDK9/cyclin T1, 11 nM; on CDK2/cyclin A, 52 nM; at CDK7/cyclin H it was 220 nM. The inhibition constant (Ki) at CDK1/cyclin B was 300 nM. Besides, the half-maximal inhibitory concentration (IC50) at GSK3β was 15.2 nM.

As to `Cc1c(-c2ccnc(Nc3cccc(CNC(=O)c4ccccc4)c3)n2)sc(=O)n1C` [Compound 57, N-{3-[4-(3,4-Dimethyl-2-oxo-2,3-dihydro-thiazol-5-yl)-pyrimidin-2-ylamino]-benzyl}-benzamide], the Ki was 160 nM at aurora A; 21 nM on CDK4/cyclin D1; 52 nM at CDK2/cyclin E; 1.6 nM at CDK9/cyclin T1; 540 nM on CDK2/cyclin A; 1300 nM on CDK7/cyclin H. Moreover, the Ki on CDK1/cyclin B is 360 nM. The IC50 on GSK3β is 17.8 nM.
